± gives the expanded uncertainty stated by the source.
Conditions: Gas, single sinker densimeter

## CCC [propane]
258.14 K, 101.23 kPa
  mass density: 2.1368 ± 0.0093 kg/m3
258.15 K, 201.63 kPa
  mass density: 4.3743 ± 0.0095 kg/m3
258.15 K, 276.61 kPa
  mass density: 6.1388 ± 0.0098 kg/m3
263.16 K, 209.67 kPa
  mass density: 4.4546 ± 0.0094 kg/m3
263.17 K, 101.09 kPa
  mass density: 2.0885 ± 0.0091 kg/m3
263.17 K, 314.8 kPa
  mass density: 6.8907 ± 0.0097 kg/m3
268.14 K, 251.5 kPa
  mass density: 5.2792 ± 0.0091 kg/m3
268.15 K, 101.59 kPa
  mass density: 2.0567 ± 0.009 kg/m3
268.16 K, 297.13 kPa
  mass density: 6.3169 ± 0.0098 kg/m3
268.16 K, 386.83 kPa
  mass density: 8.4369 ± 0.0099 kg/m3
273.14 K, 250.22 kPa
  mass density: 5.1361 ± 0.0093 kg/m3
273.15 K, 101.64 kPa
  mass density: 2.0179 ± 0.0088 kg/m3
273.15 K, 101.65 kPa
  mass density: 2.0177 ± 0.0088 kg/m3
273.15 K, 462.55 kPa
  mass density: 10.0438 ± 0.0098 kg/m3
278.14 K, 283.52 kPa
  mass density: 5.7427 ± 0.0093 kg/m3
278.14 K, 542.76 kPa
  mass density: 11.76 ± 0.0099 kg/m3
278.15 K, 105.47 kPa
  mass density: 2.0544 ± 0.0087 kg/m3
283.13 K, 101.63 kPa
  mass density: 1.942 ± 0.0085 kg/m3
283.13 K, 284.93 kPa
  mass density: 5.6533 ± 0.0089 kg/m3
283.13 K, 452.56 kPa
  mass density: 9.3303 ± 0.0097 kg/m3
283.13 K, 615.83 kPa
  mass density: 13.2515 ± 0.01 kg/m3
288.21 K, 421.87 kPa
  mass density: 8.433 ± 0.0093 kg/m3
288.21 K, 538.6 kPa
  mass density: 11.0628 ± 0.0099 kg/m3
288.22 K, 101.88 kPa
  mass density: 1.9105 ± 0.0083 kg/m3
288.22 K, 217.75 kPa
  mass density: 4.1713 ± 0.0084 kg/m3
288.22 K, 322.62 kPa
  mass density: 6.3129 ± 0.0088 kg/m3
288.22 K, 653.34 kPa
  mass density: 13.8134 ± 0.01 kg/m3
293.1 K, 803.62 kPa
  mass density: 17.2181 ± 0.011 kg/m3
293.12 K, 106.57 kPa
  mass density: 1.9628 ± 0.0083 kg/m3
293.12 K, 340.88 kPa
  mass density: 6.5552 ± 0.0084 kg/m3

## F/C=C/C(F)(F)F [trans-1,3,3,3-tetrafluoropropene]
263.17 K, 142.52 kPa
  mass density: 7.8479 ± 0.023 kg/m3
263.18 K, 101.66 kPa
  mass density: 5.5042 ± 0.023 kg/m3
263.18 K, 124.43 kPa
  mass density: 6.8014 ± 0.023 kg/m3
268.16 K, 105.74 kPa
  mass density: 5.6056 ± 0.022 kg/m3
268.16 K, 137.08 kPa
  mass density: 7.3536 ± 0.023 kg/m3
268.17 K, 168.48 kPa
  mass density: 9.1497 ± 0.023 kg/m3
273.11 K, 102.98 kPa
  mass density: 5.3503 ± 0.022 kg/m3
273.12 K, 145.02 kPa
  mass density: 7.6483 ± 0.022 kg/m3
273.12 K, 198.33 kPa
  mass density: 10.6692 ± 0.023 kg/m3
278.14 K, 103.54 kPa
  mass density: 5.2727 ± 0.022 kg/m3
278.14 K, 152.59 kPa
  mass density: 7.8948 ± 0.022 kg/m3
278.14 K, 200.35 kPa
  mass density: 10.5385 ± 0.023 kg/m3
278.14 K, 249.93 kPa
  mass density: 13.3894 ± 0.023 kg/m3
283.14 K, 106.17 kPa
  mass density: 5.3014 ± 0.021 kg/m3
283.15 K, 201.69 kPa
  mass density: 10.3769 ± 0.022 kg/m3
283.15 K, 290.13 kPa
  mass density: 15.3909 ± 0.024 kg/m3
283.15 K, 303.37 kPa
  mass density: 16.1704 ± 0.024 kg/m3
288.11 K, 185.99 kPa
  mass density: 9.3221 ± 0.021 kg/m3
288.12 K, 261.69 kPa
  mass density: 13.4297 ± 0.023 kg/m3
288.12 K, 338.42 kPa
  mass density: 17.8195 ± 0.024 kg/m3
288.13 K, 107.78 kPa
  mass density: 5.2812 ± 0.021 kg/m3
288.13 K, 356.37 kPa
  mass density: 18.8808 ± 0.024 kg/m3
293.16 K, 106.73 kPa
  mass density: 5.1257 ± 0.021 kg/m3
293.16 K, 210.6 kPa
  mass density: 10.407 ± 0.021 kg/m3
293.16 K, 302.68 kPa
  mass density: 15.3725 ± 0.023 kg/m3
293.16 K, 408.92 kPa
  mass density: 21.5052 ± 0.024 kg/m3

— the NIST ThermoML archive (doi:10.1016/j.fluid.2015.09.010)
